The values below come from US7371733B2, “Anti bacterial compounds” (Utah State University, priority 2006, dated 2008).

≈ marks a conversion by molar mass, not a printed value. Where two headings read alike, the source gives them in different places.

Experiment [1] deals with E. coli (TG1) (pTZ19U-3). The experiment in a line: microbe, parasite or virus in culture. The note with it: Escherichia coli.
Procedure: (§1) After the synthesis was completed, both representative aminoglycosides were assayed in standard dilution and diffusion assay against aminoglycoside susceptible and resistant strains of Escherichia coli using amikacin, kanamycin, ribostamycin, and butirosin as the controls. One resistant strain is equipped with the pTZ19-3 plasmid encoded for APH(3′)-I, which renders resistance to kanamycin, neomycin, lividomycin, paromomycin, and ribostamycin. The other resistant strain is equipped with the pSF815 plasmid encoded for AAC(6′) and APH(2″), which produces a bifunctional enzyme that catalyzes acetylation of amino group at C-6′ and phosphorylation of hydroxyl group at C-2″ position. This bifunctional enzyme enables bacteria to acquire resistance against gentamycin, amikacin, tobramycin, netilmicin, and kanamycin.
(§2) E. coli (pSF815) and E. coli (pTZ19U-3) are laboratory resistant strains using E. coli (TG1) as the host.
The subject of a further experiment is E. coli (TG1). The experiment is described as follows: MIC, standard dilution and diffusion assay, aminoglycoside susceptible strain. The settings on record: for MIC: Escherichia coli; for Minimum Inhibitory Concentrations (MIC): Table 2 entry 2, E. coli (TG1) aminoglycoside susceptible strain.
Experiment [2] concerns E. coli (TG1) (pSF815). The settings on record: for Minimum Inhibitory Concentration: Table 1, E. coli (TG1) (pSF815), plasmid encoded for AAC6′/APH2″; for Minimum Inhibitory Concentrations (MIC): Table 2 entry 3, E. coli (TG1) pSF815 plasmid encoded for AAC(6′)/APH(2″).
Procedure: as §1, §2
Experiment [3] relates to Pseudomonas aeruginosa (ATCC 27853). The settings on record: for Minimum Inhibitory Concentrations (MIC): Table 2 entry 9, Pseudomonas aeruginosa (ATCC 27853).
Source text: as §2
For experiment [4], the system named is E. coli (TG1) (pSF815). The experiment is described as follows: microbe, parasite or virus in culture. The settings on record: Escherichia coli.
Procedure: as §1, §2
Experiment [5] concerns Staphylococcus aureus (ATCC 33591) (MRSA). The experiment in a line: MIC, methicillin-resistant S. aureus. The settings on record: for Minimum Inhibitory Concentrations (MIC): Table 2 entry 7, Staphylococcus aureus (ATCC 33591) (MRSA); for MIC: Staphylococcus aureus, ATCC33591|MRSA, read-out: Minimum Inhibitory Concentrations (MIC).
Source text: as §2
Experiment [6] concerns K. pneumoniae (ATCC 13883). The experiment is described as follows: MIC, standard reference strain. The settings on record: for MIC: Klebsiella pneumoniae, ATCC13883, read-out: Minimum Inhibitory Concentrations (MIC); for Minimum Inhibitory Concentrations (MIC): Table 2 entry 6, K. pneumoniae (ATCC 13883).
Source text: as §2
Experiment [7] deals with Klebsiella pneumoniae (ATCC 700603). The experiment is described as follows: microbe, parasite or virus in culture. The settings on record: ATCC700603, read-out: Minimum Inhibitory Concentrations (MIC).
Source text: as §2
Experiment [8] has the same test system. The settings on record: Table 2 entry 5.
Source text: as §2
The subject of another experiment is S. aureus (ATCC 25923). The experiment is described as follows: MIC, standard reference strain. The note with it: for Minimum Inhibitory Concentrations (MIC): Table 2 entry 8, S. aureus (ATCC 25923); for MIC: Staphylococcus aureus, ATCC25923, read-out: Minimum Inhibitory Concentrations (MIC).
The test system of experiment [9] is E. coli (TG1) (pTZ19U-3). The note with it: for Minimum Inhibitory Concentrations (MIC): Table 2 entry 4, E. coli (TG1) pTZ19U-3 plasmid encoded for APH(3′)-I; for Minimum Inhibitory Concentration: Table 1, E. coli (TG1) (pTZ19U-3), plasmid encoded for APH(3′)-I.
Procedure: as §1, §2
For experiment [10], the system named is Escherichia coli (ATCC 25922). The experiment in a line: MIC, standard reference strain. The settings on record: for Minimum Inhibitory Concentrations (MIC): Table 2 entry 1, Escherichia coli (ATCC 25922); for MIC: Escherichia coli, ATCC25922, read-out: Minimum Inhibitory Concentrations (MIC).
Source text: as §2
The subject of experiment [11] is Pseudomonas aeruginosa (ATCC 27853). The experiment in a line: microbe, parasite or virus in culture. The settings on record: ATCC27853, read-out: Minimum Inhibitory Concentrations (MIC).
Source text: as §2
Where [12] appears, read: read-out: Minimum Inhibitory Concentration.
Where [13] appears, read: read-out: Minimum Inhibitory Concentrations (MIC).

Turning to `CC1O[C@@H](O[C@@H]2C(OCCN)C(N)CC(N)C2O[C@H]2OC(CN)[C@@H](O)C(O)C2N)C(O)C(O)[C@@H]1N` (stereo partly shown) [TC050], the MIC with E. coli (TG1) (pTZ19U-3) [1] (setting [12]) and with E. coli (TG1) (setting [12]) was 8 µg/mL (≈ 15.7 µM) each time. For the same compound, the “Minimum Inhibitory Concentration” value with E. coli (TG1) (pSF815) [2] is recorded as “Inactive”.
For `CC1O[C@@H](O[C@@H]2C(O)[C@H](NC(=O)[C@@H](O)CCN)CC(N)[C@H]2O[C@H]2OC(CN)[C@@H](O)[C@H](O)C2N)C(O)[C@@H](O)[C@@H]1N` (stereo partly shown) [JT005], the “Minimum Inhibitory Concentrations (MIC)” value in [3] and in experiment [5] was “Inactive” throughout. The MIC with E. coli (TG1) (pSF815) [4] (setting [12]), with E. coli (TG1) (pSF815) [4] (setting [13]), in the experiment on E. coli (TG1) (pTZ19U-3) [1] (setting [12]), with E. coli (TG1) (pTZ19U-3) [1] (setting [13]), with E. coli (TG1) (setting [12]) and with E. coli (TG1) (setting [13]) was 4 µg/mL (≈ 7.03 µM) throughout. For the same compound, the values for the MIC in experiment [6] and in [7] were 2 µg/mL (≈ 3.52 µM) and 1 to 2 µg/mL (≈ 1.76 to 3.52 µM), respectively.
For gentamicin, the “Minimum Inhibitory Concentrations (MIC)” value was 8 to 16 µg/mL in [8]; 0.5 µg/mL in the experiment on S. aureus (ATCC 25923); 0.5 to 1 µg/mL in [3]; 2 µg/mL in the experiment with E. coli (TG1); 4 µg/mL in [5]; “Inactive ^k” in the experiment with E. coli (TG1) (pSF815) [2]. Besides, the “Minimum Inhibitory Concentrations (MIC)” value turned out to be 1 µg/mL in the experiment on E. coli (TG1) (pTZ19U-3) [9], 2 µg/mL in experiment [10] and 1 µg/mL in [6].
Turning to `CC1O[C@@H](O[C@@H]2C(O)C(N)CC(N)C2O[C@H]2OC(CN)[C@@H](O)C(O)C2N)C(O)C(O)[C@@H]1N` (stereo partly shown) [TC005, pyranmycin], the MIC in the experiment with E. coli (TG1) (pTZ19U-3) [1] (setting [12]) and in the experiment with E. coli (TG1) (setting [12]) was 8 µg/mL (≈ 17.1 µM) each time. The “Minimum Inhibitory Concentration” value with E. coli (TG1) (pSF815) [2] was “Inactive”.
As for `NCC[C@H](O)C(=O)N[C@@H]1C[C@H](N)[C@@H](O[C@H]2O[C@H](CN)[C@@H](O)[C@H](O)[C@H]2O)[C@H](O)[C@H]1O[C@H]1O[C@H](CO)[C@@H](O)[C@H](N)[C@H]1O` [Amikacin, amikacin], the MIC with S. aureus (ATCC 25923) amounted to 1 µg/mL (≈ 1.71 µM); with E. coli (TG1) (pSF815) [4] (setting [12]) it was 1 µg/mL (≈ 1.71 µM); in the experiment with E. coli (TG1) (pSF815) [4] (setting [13]) it was 1 µg/mL (≈ 1.71 µM); in the experiment with E. coli (TG1) (pTZ19U-3) [1] (setting [12]), 0.5 µg/mL (≈ 0.854 µM); in the experiment on E. coli (TG1) (pTZ19U-3) [1] (setting [13]), 0.5 µg/mL (≈ 0.854 µM); with E. coli (TG1) (setting [12]) it was 1 µg/mL (≈ 1.71 µM). For the same compound, the MIC with E. coli (TG1) (setting [13]) is 1 µg/mL (≈ 1.71 µM); in [5] it was 16 µg/mL (≈ 27.3 µM); in experiment [10] it was 1 µg/mL (≈ 1.71 µM); in experiment [6], 1 µg/mL (≈ 1.71 µM); in experiment [7], 0.5 to 1 µg/mL (≈ 0.854 to 1.71 µM); in experiment [11], 0.5 to 1 µg/mL (≈ 0.854 to 1.71 µM).
On to `CC1O[C@@H](O[C@H]2C(O[C@H]3OC(CN)[C@@H](O)[C@H](O)C3N)C(N)C[C@@H](NC(=O)[C@@H](O)CCN)C2OCCN)C(O)[C@@H](O)[C@@H]1N` (stereo partly shown) [JT050], for which the MIC in the experiment on E. coli (TG1) (pSF815) [4] (setting [12]) was 2 µg/mL (≈ 3.27 µM); with E. coli (TG1) (pTZ19U-3) [1] (setting [12]), 4 µg/mL (≈ 6.54 µM); in the experiment with E. coli (TG1) (setting [12]), 8 µg/mL (≈ 13.1 µM).
On to neomycin, for which the “Minimum Inhibitory Concentrations (MIC)” value in [8] was “Inactive”; in the experiment with S. aureus (ATCC 25923), 1 µg/mL; in [3] it was “Inactive”; in the experiment on E. coli (TG1) it was 8 µg/mL; in experiment [5], “Inactive”; with E. coli (TG1) (pSF815) [2], 2 µg/mL. Also, the “Minimum Inhibitory Concentrations (MIC)” value in the experiment on E. coli (TG1) (pTZ19U-3) [9] is “Inactive”; in experiment [10], 4 µg/mL; in [6], 2 µg/mL.
As for `NC[C@H]1O[C@H](O[C@H]2[C@H](O[C@@H]3O[C@H](CO)[C@@H](O)[C@H]3O)[C@@H](O)[C@H](N)C[C@@H]2N)[C@H](N)[C@@H](O)[C@@H]1O` [Ribostamycin, ribostamycin], the “Minimum Inhibitory Concentrations (MIC)” value in experiment [8], in experiment [3] and in experiment [5] was “Inactive” throughout. For the same compound, the MIC with S. aureus (ATCC 25923) is 8 µg/mL (≈ 17.6 µM); with E. coli (TG1) (pSF815) [4] (setting [12]), 16 µg/mL (≈ 35.2 µM); in the experiment with E. coli (TG1) (pSF815) [4] (setting [13]), 16 µg/mL (≈ 35.2 µM); in the experiment on E. coli (TG1) (pTZ19U-3) [1] (setting [13]), 32 µg/mL (≈ 70.4 µM); with E. coli (TG1) (setting [12]) it was 2 µg/mL (≈ 4.4 µM); in the experiment with E. coli (TG1) (setting [13]), 2 µg/mL (≈ 4.4 µM). Also, the values for the MIC in experiment [10] and in [6] were 8 µg/mL (≈ 17.6 µM) and 4 µg/mL (≈ 8.8 µM), respectively. In addition, the “Minimum Inhibitory Concentration” value with E. coli (TG1) (pTZ19U-3) [9] is recorded as “Inactive”.
For `CC1O[C@@H](O[C@H]2C(O[C@H]3OC(CN)CCC3N)C(N)C[C@@H](N)C2O)C(O)[C@@H](O)[C@@H]1N` (stereo partly shown) [RR501, 3′,4′-Dideoxy Pyranmycin], in experiment [3], the “Minimum Inhibitory Concentrations (MIC)” value is “Inactive”. Also, the MIC in the experiment with E. coli (TG1) (pSF815) [4] (setting [12]) was found to be 4 µg/mL (≈ 9.18 µM); with E. coli (TG1) (pSF815) [4] (setting [13]), 4 µg/mL (≈ 9.18 µM); in the experiment with E. coli (TG1) (pTZ19U-3) [1] (setting [12]) it was 4 µg/mL (≈ 9.18 µM); in the experiment with E. coli (TG1) (pTZ19U-3) [1] (setting [13]), 4 µg/mL (≈ 9.18 µM); in the experiment on E. coli (TG1) (setting [12]), 8 µg/mL (≈ 18.4 µM); with E. coli (TG1) (setting [13]), 8 µg/mL (≈ 18.4 µM). For the same compound, the figures for the MIC in [5], in experiment [6] and in [7] were 4 µg/mL (≈ 9.18 µM), 2 to 4 µg/mL (≈ 4.59 to 9.18 µM) and 2 to 4 µg/mL (≈ 4.59 to 9.18 µM), respectively. Besides, in the experiment with E. coli (TG1) (pTZ19U-3) [9] (text statement summarising Table 1), the “activity against resistant bacteria equipped with APH(3′), in words” value is given as “active”.
In the case of butirosin, the “Minimum Inhibitory Concentrations (MIC)” value was 0.5 µg/mL in experiment [8]; 2 µg/mL in the experiment on S. aureus (ATCC 25923); “Inactive” in experiment [3]; 1 µg/mL in the experiment on E. coli (TG1); “Inactive” in [5]; 0.25 µg/mL in the experiment with E. coli (TG1) (pSF815) [2]. The “Minimum Inhibitory Concentrations (MIC)” value in the experiment on E. coli (TG1) (pTZ19U-3) [9] is 0.5 µg/mL; in experiment [10], 2 µg/mL; in [6] it was 0.5 to 1 µg/mL. Moreover, the “Minimum Inhibitory Concentration” value came out at 0.5 µg/mL with E. coli (TG1) (Table 1, E. coli (TG1)); 0.5 µg/mL with E. coli (TG1) (pSF815) [2]; 0.5 µg/mL with E. coli (TG1) (pTZ19U-3) [9].
Consider `C[C@H]1O[C@@H](O[C@@H]2[C@@H](O)[C@H](NC(=O)[C@@H](O)CCN)C[C@H](N)[C@H]2O[C@H]2O[C@H](CN)CC[C@H]2N)[C@H](O)[C@@H](O)[C@@H]1N` [pyrankacin], for which the MIC in the experiment with S. aureus (ATCC 25923) worked out at 2 µg/mL (≈ 3.73 µM); in the experiment with E. coli (TG1) (pSF815) [4] (setting [13]), 1 µg/mL (≈ 1.86 µM); in the experiment on E. coli (TG1) (pTZ19U-3) [1] (setting [13]) it was 1 µg/mL (≈ 1.86 µM); in the experiment on E. coli (TG1) (setting [13]), 4 µg/mL (≈ 7.45 µM); in experiment [5], 8 µg/mL (≈ 14.9 µM); in experiment [10], 4 µg/mL (≈ 7.45 µM). The MIC amounted to 2 µg/mL (≈ 3.73 µM) in [6], 1 µg/mL (≈ 1.86 µM) in experiment [7] and 2 µg/mL (≈ 3.73 µM) in experiment [11]. In experiment [3] (text statement summarising Table 2), the “activity against P. aeruginosa, in words” value is “active”.
